# According to ChEMBL document CHEMBL1130513, “New hepatoprotective saponins, bupleurosides III, VI, IX, and XIII, from Chinese Bupleuri Radix: Structure-requirements for the cytoprotective activity in primary cultured rat hepatocytes” (1997):
# Assays:
# Assay type in all cases: functional
# Conditions in all cases: Hepatocyte
# Rattus norvegicus [1] = species: Rattus norvegicus; test: In vitro inhibitory effect on D-Galactosamine induced cytotoxicity in primary cultured rat hepatocytes at 30 ug/mL
# Rattus norvegicus [2] = species: Rattus norvegicus; test: In vitro inhibitory effect on D-Galactosamine induced cytotoxicity in primary cultured rat hepatocytes at 0.3 ug/mL
# Rattus norvegicus [3] = species: Rattus norvegicus; test: In vitro inhibitory effect on D-Galactosamine induced cytotoxicity in primary cultured rat hepatocytes at 3 ug/mL
# Rattus norvegicus [4] = species: Rattus norvegicus; test: In vitro inhibitory effect on D-Galactosamine induced cytotoxicity in primary cultured rat hepatocytes at 10 ug/mL
# Rattus norvegicus [5] = species: Rattus norvegicus; test: In vitro inhibitory effect on D-Galactosamine induced cytotoxicity in primary cultured rat hepatocytes at 1 ug/mL
SMILES,inhibition at 30 µg/mL (Rattus norvegicus [1]) [%],inhibition at 0.3 µg/mL (Rattus norvegicus [2]) [%],inhibition at 3 µg/mL (Rattus norvegicus [3]) [%],inhibition at 10 µg/mL (Rattus norvegicus [4]) [%],inhibition at 1 µg/mL (Rattus norvegicus [5]) [%]
C[C@H]1O[C@@H](OC2CC[C@@]3(C)C(CC[C@]4(C)C3C=CC3=C5CC(C)(C)CC[C@]5(CO)[C@H](O)C[C@]34C)[C@]2(C)CO)[C@H](O)[C@@H](O[C@@H]2O[C@H](CO)[C@@H](O)[C@H](O)[C@H]2O)[C@H]1O (stereo not given in full),8.4,2.7,5.3,5.5,6.1
C[C@H]1O[C@@H](OC2CC[C@@]3(C)C(CC[C@]4(C)C3C=CC3=C5CC(C)(C)CC[C@]5(CO)[C@@H](O)C[C@]34C)[C@]2(C)CO)[C@H](O)[C@@H](O[C@@H]2O[C@H](CO)[C@@H](O)[C@H](O)[C@H]2O)[C@H]1O (stereo not given in full),-5.1,0.1,4.3,8.7,-1.4
CO[C@@H]1C=C2C3CC(C)(C)CC[C@]3(CO)[C@@H](O)C[C@@]2(C)[C@]2(C)CCC3[C@](C)(CCC(O[C@@H]4O[C@H](C)[C@H](O)[C@H](O[C@@H]5O[C@H](CO)[C@@H](O)[C@H](O)[C@H]5O)[C@H]4O)[C@@]3(C)CO)C12 (stereo not given in full),72.1,8.7,56.4,70.4,13.9
CO[C@@H]1C=C2C3CC(C)(C)CC[C@]3(CO)[C@H](O)C[C@@]2(C)[C@]2(C)CCC3[C@](C)(CCC(O[C@@H]4O[C@H](C)[C@H](O)[C@H](O[C@@H]5O[C@H](CO)[C@@H](O)[C@H](O)[C@H]5O)[C@H]4O)[C@@]3(C)CO)C12 (stereo not given in full),-9.9,3.6,-6.9,-8.3,-4
CO[C@@H]1C=C2C3CC(C)(C)CC[C@]3(CO)[C@@H](O)C[C@@]2(C)[C@]2(C)CCC3[C@](C)(CCC(O[C@@H]4O[C@H](CO[C@@H]5O[C@H](CO)[C@@H](O)[C@H](O)[C@H]5O)[C@H](O[C@@H]5O[C@@H](C)[C@H](O)[C@@H](O)[C@H]5O)[C@H](O)[C@H]4O)[C@@]3(C)CO)C12 (stereo not given in full),4.8,1.5,3.5,2.9,1.2
C[C@H]1O[C@@H](OC2CC[C@@]3(C)C(CC[C@]4(C)C3C=C[C@]35OC[C@@]6(CCC(C)(C)CC63)[C@@H](O)C[C@]54C)C2(C)C)[C@H](O)[C@@H](O[C@@H]2O[C@H](CO)[C@@H](O)[C@H](O)[C@H]2O)[C@H]1O (stereo not given in full),-30.6,-12,-26.9,-29.2,-17.1
C[C@H]1O[C@@H](O[C@H]2CC[C@@]3(C)C(CC[C@]4(C)C3C=C[C@]35OC[C@@]6(CCC(C)(C)CC63)[C@@H](O)C[C@]54C)[C@]2(C)CO)[C@H](O)[C@@H](O[C@@H]2O[C@H](CO)[C@@H](O)[C@H](O)[C@H]2O)[C@H]1O (stereo not given in full),-14.8,-3.6,-11.6,-12.7,-7.1
C[C@H]1O[C@@H](O[C@H]2CC[C@@]3(C)C(CC[C@]4(C)C3C=C[C@]35OC[C@@]6(CCC(C)(C)CC63)[C@H](O)C[C@]54C)[C@]2(C)CO)[C@H](O)[C@@H](O[C@@H]2O[C@H](CO)[C@@H](O)[C@H](O)[C@H]2O)[C@H]1O (stereo not given in full),-5.3,3.9,-4.2,-4.3,2.3
CO[C@@H]1C=C2C3CC(C)(C)CC[C@]3(CO)[C@@H](O)C[C@@]2(C)[C@]2(C)CCC3C(C)(C)[C@@H](O[C@@H]4O[C@H](C)[C@H](O)[C@H](O[C@@H]5O[C@H](CO)[C@@H](O)[C@H](O)[C@H]5O)[C@H]4O)CC[C@]3(C)C12 (stereo not given in full),75,37.2,75.5,73.3,64.9
CO[C@@H]1C=C2C3CC(C)(C)CC[C@]3(CO)[C@H](O)C[C@@]2(C)[C@]2(C)CCC3[C@](C)(CC[C@H](O[C@@H]4O[C@H](C)[C@H](O)[C@H](O[C@@H]5O[C@H](CO)[C@@H](O)[C@H](O)[C@H]5O[C@@H]5O[C@H](CO)[C@@H](O)[C@H](O)[C@H]5O)[C@H]4O)[C@@]3(C)CO)C12 (stereo not given in full),-2.9,1.7,-0.4,-2.2,0.3
C[C@@H]1O[C@@H](O[C@@H]2[C@H](O)[C@@H](O)[C@H](OC3CC[C@@]4(C)C(CC[C@]5(C)[C@@H]4[C@H](O)C=C4C6CC(C)(C)CC[C@]6(CO)[C@@H](O)C[C@]45C)C3(C)C)O[C@@H]2CO[C@@H]2O[C@H](CO)[C@@H](O)[C@H](O)[C@H]2O)[C@H](O)[C@H](O)[C@H]1O (stereo not given in full),-6.5,-2.3,-3.4,-3.2,-5.1
CO[C@@H]1C=C2C3CC(C)(C)CC[C@]3(CO)[C@@H](O)C[C@@]2(C)[C@]2(C)CCC3C(C)(C)C(O[C@@H]4O[C@H](CO[C@@H]5O[C@H](CO)[C@@H](O)[C@H](O)[C@H]5O)[C@H](O[C@@H]5O[C@@H](C)[C@H](O)[C@@H](O)[C@H]5O)[C@H](O)[C@H]4O)CC[C@]3(C)[C@@H]12 (stereo not given in full),8.1,10.3,4.5,11.1,9.7
C[C@@H]1O[C@@H](O[C@@H]2[C@H](O)[C@@H](O)[C@H](OC3CC[C@@]4(C)C(CC[C@]5(C)[C@@H]4CC=C4C6CC(C)(C)CC[C@]6(CO)[C@@H](O)C[C@]45C)C3(C)C)O[C@@H]2CO[C@@H]2O[C@H](CO)[C@@H](O)[C@H](O)[C@H]2O)[C@H](O)[C@H](O)[C@H]1O (stereo not given in full),-0.7,3.1,-2.9,-2.9,0.2
CC1(C)CC[C@@]2(CO)C(C1)C1=CC(=O)C3[C@@]4(C)CC[C@H](O)[C@@](C)(CO)C4CC[C@@]3(C)[C@]1(C)C[C@@H]2O (stereo not given in full),4.9,0.6,0,0.4,0.6
C[C@H]1O[C@@H](O[C@H]2CC[C@@]3(C)C(CC[C@]4(C)C3C=C[C@]35OC[C@@]6(CCC(C)(C)CC63)[C@@H](O)C[C@]54C)[C@]2(C)CO)[C@H](O)[C@@H](O[C@@H]2O[C@H](CO)[C@@H](O)[C@H](O)[C@H]2O[C@@H]2O[C@H](CO)[C@@H](O)[C@H](O)[C@H]2O)[C@H]1O (stereo not given in full) [BUPLEUROSIDE I],-12.2,-5.4,-7.8,-7.8,-6.5
CC1(C)CC[C@]2(C(=O)O)CC[C@]3(C)C(=CCC4[C@@]5(C)CC[C@H](O[C@@H]6O[C@H](CO)[C@H](O)[C@H](O[C@@H]7OC[C@@H](O)[C@@H](O)[C@@H]7O[C@@H]7O[C@H](CO)[C@@H](O)[C@H](O)[C@H]7O)[C@H]6O)C(C)(C)C5CC[C@]43C)C2C1 (stereo not given in full) [BUPLEUROSIDE VII1],-1.4,1.5,-0.9,-1.4,0.1
C[C@@H]1O[C@@H](O[C@@H]2[C@H](O)[C@@H](O)[C@H](O[C@H]3CC[C@@]4(C)C(CC[C@]5(C)C4C(=O)C=C4C6CC(C)(C)CC[C@]6(CO)[C@@H](O)C[C@]45C)C3(C)C)O[C@@H]2CO[C@@H]2O[C@H](CO)[C@@H](O)[C@H](O)[C@H]2O)[C@H](O)[C@H](O)[C@H]1O (stereo not given in full) [BUPLEUROSIDE VII],3.2,-0.6,4.3,2.2,2.5
C[C@H]1O[C@@H](OC2CC[C@@]3(C)C(CC[C@]4(C)C3C=CC3=C5C[C@](C)(C(=O)O)CC[C@]5(CO)[C@H](O)C[C@]34C)[C@]2(C)CO)[C@H](O)[C@@H](O[C@@H]2O[C@H](CO)[C@@H](O)[C@H](O)[C@H]2O)[C@H]1O (stereo not given in full) [BUPLEUROSIDE V],4.5,1.4,1.4,3.8,1.5
C[C@@H]1O[C@@H](O[C@H]2[C@@H](O)[C@@H](CO[C@@H]3O[C@H](CO)[C@@H](O)[C@H](O)[C@H]3O)O[C@@H](OC3CC[C@@]4(C)C(CC[C@]5(C)C4C=CC4=C6C[C@@](C)(CO)CC[C@]6(CO)[C@H](O)C[C@]45C)[C@]3(C)CO)[C@@H]2O)[C@H](O)[C@H](O)[C@H]1O (stereo not given in full) [BUPLEUROSIDE XII],0.8,0.1,-0.8,2,0.3
